In patent publication US20250255867A1 (Kadmon Corporation, LLC, priority 2022, published 2025):

Columns and labels:
patients with cGVHD = assay: Example 1: corticosteroid and calcineurin inhibitor sparing; type: in vivo, human; conditions: for Participants who discontinued CNI, number / Participants who discontinued CNI, percent / Participants with reduction in CNI dose, number / Participants with reduction in CNI dose, percent: baseline up to EOT
Experimental: Corticosteroid sparing. […] The mean corticosteroid dose was reduced by 45%. The median time to corticosteroid therapy discontinuation was 29 weeks (range, 8-77 weeks).
Change from Baseline in Corticosteroids Dose. An EOT visit was performed within 3 days after the participant's last dose of study drug. Baseline value was defined as valid and last non-missing value obtained within 28 days prior to participant receiving first study medication. The mITT population was analyzed, with the ‘overall number of participants analyzed’=participants with available data for this outcome measure.
Change from Baseline in Calcineurin Inhibitor (CNI). Calcineurin inhibitors included systemic tacrolimus and cyclosporine. Number of participants who took CNI at Baseline and had reduction and discontinuation in CNI use as compared to Baseline during the study are reported in this outcome measure. EOT visit was performed within 3 days after the participant's last dose of study drug. Baseline value was defined as valid and last non-missing value obtained within 28 days prior to participant receiving first study medication.

subjects with cGVHD = assay: Example 2: failure-free survival, overall survival, NRM, relapse; type: in vivo, human; conditions: for FFS at 6 mo (95% CI) / FFS at 12 mo (95% CI): mITT population
Experimental: All responses were assessed by the study site investigators.

[1] = Total N=54, listed as belumosudil

CC(C)NC(=O)COc1cccc(-c2nc(Nc3ccc4[nH]ncc4c3)c3ccccc3n2)c1 [Belumosudil, 2-{3-[4-(1H-indazol-5-ylamino)-2-quinazolinyl]phenoxy}-N-(propan-2-yl) acetamide]
CS discontinuation (patients with cGVHD; Cohort 1 200 mg QD): 4 (24, 7 to 50) % | Mean percent change in CS dose from baseline, nonresponder (patients with cGVHD; Cohort 1 200 mg QD): −26% | Mean percent change in CS dose from baseline, overall (patients with cGVHD; Cohort 1 200 mg QD): −50% | Mean percent change in CS dose from baseline, responder (patients with cGVHD; Cohort 1 200 mg QD): −63% | Proportion with CS reduction (patients with cGVHD; Cohort 1 200 mg QD): 13 (76, 50 to % | Change From Baseline in Corticosteroids Dose, Mean (Standard Deviation) (patients with cGVHD; Cohort 1 200 mg QD, baseline to end of treatment): −0.110 (0.101) milligrams per kilogram per day | Participants who discontinued CNI, number (patients with cGVHD; Cohort 1: 200 mg QD): 0 | Participants who discontinued CNI, percent (patients with cGVHD; Cohort 1: 200 mg QD): (0%) | Participants with reduction in CNI dose, number (patients with cGVHD; Cohort 1: 200 mg QD): 5 | Participants with reduction in CNI dose, percent (patients with cGVHD; Cohort 1: 200 mg QD): (83%) | CS discontinuation (patients with cGVHD; Cohort 2 200 mg BID): 2 (13, 2 to 38) % | Mean percent change in CS dose from baseline, nonresponder (patients with cGVHD; Cohort 2 200 mg BID): −37% | Mean percent change in CS dose from baseline, overall (patients with cGVHD; Cohort 2 200 mg BID): −36% | Mean percent change in CS dose from baseline, responder (patients with cGVHD; Cohort 2 200 mg BID): −36% | Proportion with CS reduction (patients with cGVHD; Cohort 2 200 mg BID): 9 (56, 30 to 80) % | Participants who discontinued CNI, number (patients with cGVHD; Cohort 2: 200 mg BID): 1 | Participants who discontinued CNI, percent (patients with cGVHD; Cohort 2: 200 mg BID): 17% | Participants with reduction in CNI dose, number (patients with cGVHD; Cohort 2: 200 mg BID): 5 | Participants with reduction in CNI dose, percent (patients with cGVHD; Cohort 2: 200 mg BID): 83% | CS discontinuation (patients with cGVHD; Cohort 3 400 mg QD): 4 (19, 5 to 42) % | Mean percent change in CS dose from baseline, nonresponder (patients with cGVHD; Cohort 3 400 mg QD): −19% | Mean percent change in CS dose from baseline, overall (patients with cGVHD; Cohort 3 400 mg QD): −47% | Mean percent change in CS dose from baseline, responder (patients with cGVHD; Cohort 3 400 mg QD): −63% | Proportion with CS reduction (patients with cGVHD; Cohort 3 400 mg QD): 14 (67, 43 to % | Participants who discontinued CNI, number (patients with cGVHD; Cohort 3: 400 mg QD): 3 | Participants who discontinued CNI, percent (patients with cGVHD; Cohort 3: 400 mg QD): 27% | Participants with reduction in CNI dose, number (patients with cGVHD; Cohort 3: 400 mg QD): 6 | Participants with reduction in CNI dose, percent (patients with cGVHD; Cohort 3: 400 mg QD): 55% | Mean percent change in CS dose from baseline, nonresponder (patients with cGVHD; Total): −26% | Mean percent change in CS dose from baseline, overall (patients with cGVHD; Total): −45% | Mean percent change in CS dose from baseline, responder (patients with cGVHD; Total): −55% | CS discontinuation (patients with cGVHD; Total N=54): Approximately 20% | CS discontinuation (patients with cGVHD; Total N=54, listed as KD025): 10 (19, 9 to 31) % | Proportion with CS reduction (patients with cGVHD; Total N=54, listed as KD025): 36 (67, 53 to % | CS discontinuation (patients with cGVHD; [1]): 19% | Proportion with CS reduction (patients with cGVHD; [1]): 67% | Mean corticosteroid dose reduction (patients with cGVHD; all patients): 45% | Mean corticosteroid dose reduction (patients with cGVHD; nonresponders): 26% | Median time to corticosteroid therapy discontinuation (patients with cGVHD; range, 8-77 weeks): 29 weeks | Mean corticosteroid dose reduction (patients with cGVHD; responders): 55% | FFS at 6 mo (95% CI) (subjects with cGVHD; 200 mg daily (n = 66)): 73 (61-83) % | FFS at 12 mo (95% CI) (subjects with cGVHD; 200 mg daily (n = 66)): 57 (44-68) % | FFS at 6 mo (95% CI) (subjects with cGVHD; 200 mg twice daily (n = 66)): 76 (63-84) % | FFS at 12 mo (95% CI) (subjects with cGVHD; 200 mg twice daily (n = 66)): 56 (43-67) % | Overall FFS rate at 12 months (subjects with cGVHD; 95% CI, 47-64): 56% | Overall FFS rate at 6 months (subjects with cGVHD; 95% CI, 66-81): 75% | 2-year OS rate (subjects with cGVHD; 95% CI, 82-93): 89% | Failure event: initiation of a new systemic cGVHD therapy (subjects with cGVHD; in vivo): 38% | Relapse rate (subjects with cGVHD; in vivo): 3%
